One data set concerns H4IIE cells. The data set is described as follows: Cell viability (CellTiter96 AQueous One) in H4IIE cells. The format is cell-based, rat. As to conditions: tested doses. The method, then:
After the above treatments, 50 μl of culture media were collected, and subjected to glucose analysis using Molecular Probes Amplex Red glucose assay kit (Cat #A22189) according to the manufacturer's protocol. Cell numbers or viability in the culture plate after the above compound treatments were determined using Promega's CellTiter96® AQueous One Solution Cell Proliferation Assay kits, according to the manufacturer's protocol and instructions. In brief, after removing 50 μl of culture media for glucose assay, cells were incubated with AQueous One solution (25 μl stock solution and 50 μl prewarmed PBS/per well) at 37° C. for 1 hour, and the absorbance of OD490 nm in each sample was determined by the Bio-Tek microplate reader. Cell viability in culture wells were determined by the subtraction of OD490 nm in cultured cells with the OD490 nm in plain culture media (without seeding of cells). Glucose production in the culture cells were obtained by normalizing the glucose concentration in culture media by cell viability in each well. At least 3 samples per each treatment were examined for the above analysis. Data are presented as Mean±SEM of those samples. Experiments were repeated at least twice.

Data set [1] deals with Lepr^db/db mice. The data set is described as follows: Acute treatment: blood glucose in Lepr^db/db mice. The format is in vivo, mouse. As to the method: After overnight fasting, 8-10-week-old Lepr^db/db mice were intraperitoneally injected with physiological saline ([…]) containing 0.2% DMSO, or Compound #43 (0.0054, 0.054, 0.54, or 5.4 mg Compound #43 (the compound stock was diluted in sterile physiological saline) per kilogram of body weight. Following the injection of saline or compound, mice were returned to their cages with free access to water but not chow for 1, 2, 3, 5 and 8 hr. At each time point after injection, a small drop of blood was collected from the tail of each mouse for glucose assay.
Additional 6-week old Lepr^db/db mice under non-fasting conditions were intraperitoneally injected with physiological saline ([…]) containing 0.2% DMSO, or a single dose of Compound #43 (5.4 mg compound/kg body weight). After injection, animals were returned back to their cages with free access to water and chow. After 24 hr, a small drop of blood from the mouse tail was collected for glucose assay.
After treatment with physiological saline or compounds or after the injection of a bolus of glucose, a small drop of blood from each mouse was collected by snipping the mouse tail tip. Blood glucose levels were determined using a Glucometer with a maximum capability for glucose measurement of 600 mg/dL.

Data set [2] concerns Lepr^db/db mice. In words: Glucose tolerance test in Lepr^db/db mice. The class given is in vivo, mouse. As to the method: Male Lepr^db/db mice at 38 days of age were intraperitoneally (ip) injected daily with physiological saline ([…]) containing 0.2% DMSO, Compound #C, Compound #50, Compound #68, and/or Compound #43 (25 μg selenium or sulfur equivalents of each compound per kilogram body weight, diluted in sterile physiological saline) for periods ranging from 43-90 days. Body weights of the above treated mice were recorded daily using a balance and any visible abnormal animal gross morphology and walking behavior were monitored daily. After the treatments, animals were fasted overnight and then subjected to blood glucose or HbA1c assays, glucose tolerance tests or tissue collections.
For comparative studies of any potential anti-diabetic effects of Compounds #43, #69 and #70, male Lepr^db/db mice at 41 days of age were intraperitoneally (ip) injected daily with physiological saline ([…]) containing 0.2% DMSO, Compound #43, Compound #69, or Compound #70 (25 μg selenium of each compound per kilogram body weight, diluted in sterile physiological saline). After the treatments for 43 days, animals were fasted overnight and then subjected to blood glucose and glucose tolerance tests. After daily treatments of these compounds for 90 days, sera from these animals were collected and then subjected to blood HbA1c assays.
Glucose tolerance tests were performed as described previously (Li et al, Int J Biol Sci 2008; 4:29-36). Briefly, overnight-fasted Lepr^db/db mice after saline or compound treatments were injected intraperitoneally with 2 grams/kg body weight of 20% D-glucose. Blood glucose levels at time 0 (immediately before the injection of glucose), 0.25, 0.5, 1 and 2 hours after injection of glucose were determined using a glucometer with a maximum glucose measurement capacity of 600 mg/dL. Because of this, blood glucose levels over 600 mg/dL were counted as 600 mg/dL in the data analysis.

The subject of the next data set is G6pc. In words: QRT-PCR of G6pc mRNA in livers of Lepr^db/db mice. The conditions noted are these: 25 μg selenium/kg ip daily, 52 days (FIG. 9). The class given is in vivo, mouse. As to the method:
Male Lepr^db/db mice (C57BL/6J strain, purchased from The Jackson Laboratory) at 38-days of age were intraperitoneally injected daily with physiological saline ([…]) containing 0.2% DMSO, Compound #50, or Compound #43 (25 μg selenium equivalent of each compound per kilogram body weight, diluted in the sterile physiological saline) for 52 days. After the treatment, livers were collected and subjected RNA analysis.
Total RNA from saline- or selenium compound-treated Lepr^db/db mice was isolated using a Qiagen RNAeasy RNA isolation kit according to the Manufacturer's protocol. Total RNA from cultured cells was isolated using Trizol (Invitrogen) according to the manufacturer's protocol, and then incubated with DNase I to remove any potential contaminating genomic DNA. RNA samples were subjected to real-time PCR (QRT-PCR) analysis using Applied-Bioscience's RT kit and predesigned Taqman probes (Invitrogen), as described previously (Lan et al EMBO J 2003). Data were normalized by Actin B (Actb) mRNA levels in each sample, and are presented as mean±SEM of 3-5 samples.

A short description of data set [3]: Serum insulin, ALT and creatinine assays in Lepr^db/db mice. The format is in vivo, mouse. As to conditions: 0.136 mg/kg ip daily. As to the method: Male Lepr^db/db mice at 38 days of age were intraperitoneally (ip) injected daily with physiological saline ([…]) containing 0.2% DMSO, and Compound #43 (0.136 mg per kilogram body weight, diluted in sterile physiological saline) for 52 days. Sera from 3-month-old wild-type (non-diabetic) C57 mice were also collected. After the treatments, these serum samples were collected and subjected to insulin, ALT and creatinine assays.
The serum levels of insulin, ALT and creatinine were determined using Themo-Fisher Scientific's Insulin Mouse ELISA kit (Cat #EMINS), Sigma's ALT Activity Assay kit (Cat #MAK052), and Abcam's Creatinine Assay kit (Cat #Ab65340) according to the manufacturer's protocol, respectively.

Take `C[Se]C[C@H]1O[C@@H](n2cnc3c(N)ncnc32)C(OC(C)=O)C1OC(C)=O` (stereo partly shown) [Compound #43, Adenosine, 5′-Se-methyl-5′-selino-, 2′,3′-diacetate]: the “toxic effect on cell viability” value with H4IIE cells is “No toxic effect”. Also, the “decrease of blood glucose levels” value in the data set on Lepr^db/db mice [1] (5.4 mg/kg single ip, 24 hr, 6-week-old mice, ad-libitum feeding (FIG. 7)) is listed as “about 20%”. The “duration of effectiveness in lowering glucose output” value in the data set on Lepr^db/db mice [1] (5.4 mg/kg single ip, feeding conditions) is “at least 24 hr”. Moreover, the “effect on blood glucose levels vs saline” value in the data set on Lepr^db/db mice [1] (single ip 0.0054, 0.054, 0.54, 5.4 mg/kg, fasting, 1-8 hr (FIG. 6)) was “significant decrease of blood glucose levels”. Further, in the data set with Lepr^db/db mice [1] (single ip injection, fasting), the duration of activity entry is given as “at least 8 hours”. The “onset of action post-treatment” value in the data set with Lepr^db/db mice [1] (single ip injection, fasting) is ≤ 1 h. Besides, in the data set with Lepr^db/db mice [1] (single ip injection, fasting conditions), the “time of peak activity in reducing blood glucose levels” value is 2 to 5 h. The “glucose tolerance (overall)” value was “dramatically improves glucose tolerance” in the data set with Lepr^db/db mice [2] (25 μg selenium or sulfur/kg ip daily 2 months (FIG. 8B)); “can almost completely restore insulin action” in the data set on Lepr^db/db mice [2] (25 μg selenium/kg ip daily 43 days from day 38, glucose 2 g/kg (FIG. 8A)); “can dramatically improve glucose tolerance” in the data set on Lepr^db/db mice [2] (25 μg selenium/kg ip daily 43 days from day 41 (FIG. 8C)). The “blood glucose level at 2 hr after glucose injection” value in the data set with Lepr^db/db mice [2] (FIG. 8A, 43 days treatment) is listed as “almost completely back to pre-injection glucose levels”; with Lepr^db/db mice [2] (FIG. 8B, 2 months treatment), “significantly lower than Compound #68-treated littermates”; in the data set on Lepr^db/db mice [2] (FIG. 8C, 43 days treatment), “much lower than Saline-, Compound #69- or Compound #70-treated mice”. Besides, the “blood glucose levels at 0.25, 0.5 and 1 hr after glucose injection” value in the data set with Lepr^db/db mice [2] (FIG. 8A, 43 days treatment) is given as “visibly lower than saline-, Compound #C- or #50-treated mice”. Further, in the data set with Lepr^db/db mice [2] (FIG. 8C, 43 days treatment), the “blood glucose level at 1 hour after glucose injection” value is reported as “significantly lower than saline-, Compound #69- or Compound #70-treated littermates”. Also, the “reduction of G6pc mRNA levels in the liver vs saline” value in the data set on G6pc is reported as “about 56%”. The “decrease of serum insulin levels” value in data set [3] (52 days (FIG. 24A)) was “about 80%”. Besides, the “serum ALT levels” value in data set [3] (52 days (FIG. 24B)) is “significant decrease of serum ALT levels”. Moreover, the serum creatinine levels entry in data set [3] (52 days (FIG. 24C)) is listed as “no significant change in serum creatinine levels”.

The values are drawn from patent publication US11613552B2, “Pharmaceutical agents, compositions, and methods relating thereto” (Alltech, Inc., priority 2017, dated 2023).
